Measurements published in publication PMC4650734, “FV-162 is a novel, orally bioavailable, irreversible proteasome inhibitor with improved pharmacokinetics displaying preclinical efficacy with continuous daily dosing” (Cell Death & Disease, 2015).
Like-named read-outs stand apart in the source and are kept apart here.

How the values were obtained:
[1] = Metabolic stability assay with pooled mouse liver microsomes; assay type: in vitro ADME; conditions: 5 μM compound, 15 min, 0.5 mg/ml pooled mouse liver microsomes, LC/MS
Protocol: Pooled liver microsomes isolated from male CD-1 mice were purchased from BD Biosciences (San Jose, CA, USA). Metabolic stability was calculated by measuring the percentage of 5 μM of each test compound remaining after 15 min incubation with 0.5 mg/ml liver microsomes at 37 °C. Compounds were detected by LC/MS using a Xevo quadrupole time-of-flight mass spectrometer and an ACQUITY ultra-performance LC (UPLC) system (Waters Inc., Milford, MA, USA) to determine relative peak areas of each parent compound.

CT-L proteasome subunit = assay: CT-L proteasome activity in whole cell lysates of human myeloma cell lines (Suc-Leu-Leu-Val-Tyr-AMC); assay type: biochemical
Protocol: Cells were harvested by centrifugation at 1200 r.p.m. at room temperature. Cell pellets were washed with PBS and lysed with assay lysis buffer (50 mM HEPES (2-[4-(2-hydroxyethyl) piperazin-1-yl]ethanesulfonic acid)), pH 7.5; 150 mM NaCl; 1% Triton X-100; 2 mM ATP). Cell lysates were incubated on ice for 30 min, mixed by vortex every 5 min, and centrifuged at 12 000 × g for 10 min. Supernatants were transferred to a 96-well plate in triplicate. For each assay, 10 μg of total protein were incubated for 1 h at 37 °C with increasing concentrations (0.001–10 μM) of test compound or vehicle control diluted in assay buffer (50 mM Tris-HCl (tris(hydroxymethyl)aminomethane-HCl), pH 7.5; 150 mM NaCl). After incubation, a specific fluorogenic proteasome substrate was added to each assay reaction (40 μM in a total volume of 100 μl). […] The excitation wavelength was 360 nm and the fluorescence emission of free AMC released during the enzymatic reaction was detected at 460 nm on a SpectraMax M5 fluorescent spectrophotometric plate reader (Molecular Devices, Sunnyvale, CA, USA). AMC release rate was measured at 37 °C in a kinetic mode, recording every 5 min for 30 min.

[2] = tested on: 10 human myeloma cell lines; assay: MTS cell growth and viability assay; assay type: cell-based; conditions: 72 h
Protocol: (§1) Human multiple myeloma cell lines 8226, H929, JJN3, KMH11, KMS11, KMS18, LP1, MM.1 S, OPM2, and U266 were grown in Iscove's modified Dulbecco's medium (IMDM). Cell lines were authenticated with short tandem repeat method in September 2011. In addition, cell lines were continually monitored by morphological inspection. Primary mononuclear cells were isolated from peripheral blood or bone marrow samples from multiple myeloma patients at the Princess Margaret Cancer Centre (Toronto, ON, Canada) by Ficoll density gradient centrifugation and cultured in IMDM. All cell culture media were obtained from the Ontario Cancer Institute Tissue Culture Media Facility (Toronto, ON, Canada) and were supplemented with 10% fetal calf serum, 100 μg/ml penicillin, and 100 μg/ml streptomycin (Hyclone, Logan, UT, USA). […]
(§2) Cellular viability was primarily assessed by MTS assay according to the manufacturer's instructions (Promega, Madison, WI, USA). […] Cell viability was independently confirmed by reading the optical density at 490 nm and by exclusion of trypan blue stain (Invitrogen, Burlington, ON, Canada). Viability of primary mononuclear cells was determined by Annexin V–fluorescein isothiocyanate and propidium iodide co-staining (Biovision Research Products, Mountain View, CA, USA) using flow cytometry according to the manufacturer's instructions after 48 h of treatment with inhibitors or vehicle control.

[3] = tested on: primary CD138+ myeloma cells; assay: Annexin V flow cytometry viability of primary bone marrow mononuclear cells, myeloma fraction; assay type: cell-based, human
Protocol: as §1, §2

[4] = Pharmacokinetic study in Sprague-Dawley rats; assay type: in vivo; conditions: rat; for bioavailability: 40 mg/kg p.o. vs 5 mg/kg i.v.
NOD/SCID mice = assay: Dose tolerance studies / MTD in mice; conditions: 30 mg/kg daily by oral gavage, up to 8 days, NOD/SCID mice
Protocol: NOD/SCID mice were administered FV-162 (30 mg/kg daily, 7 days/week) in a 5% DMSO, 20% Cremophor vehicle by oral gavage or ONX-0912 (30 mg/kg daily, 7 days/week) in a 5% DMSO, 20% Cremophor vehicle by oral gavage for a week. Mice were monitored for changes in body weight, behavior, and physical appearance.

C-L subunit activity = assay: C-L proteasome activity in RBCs of treated mice; assay type: in vivo, mouse; conditions: FV-162 30 mg/ml as printed in Figure 5e legend
T-L subunit activity = assay: T-L proteasome activity in RBCs of treated mice; assay type: in vivo, mouse; conditions: FV-162 30 mg/ml as printed in Figure 5e legend
patients = conditions: cited from earlier work
[5] = male, Sprague-Dawley, plasma, iv, 5 mg/kg i.v.
[6] = male, Sprague-Dawley, plasma, iv, 5 mg/kg i.v., read-out: AUC (converted)
[7] = male, Sprague-Dawley, plasma, iv, 5 mg/kg i.v., read-out: Cmax
[8] = male, Sprague-Dawley, plasma, po, 40 mg/kg p.o.
[9] = male, Sprague-Dawley, plasma, po
[10] = male, Sprague-Dawley, plasma, 40 mg/kg oral, read-out: AUC (as printed in text) (converted)
[11] = male, Sprague-Dawley, plasma, 40 mg/kg oral, read-out: Cmax (as printed in text)

| SMILES | percentage of parent compound remaining [1] | Tmax [4, 5] | Vd [4, 5] | half-life [4, 5] | AUC [4, 6] | Cmax [4, 7] | Tmax [4, 8] | bioavailability [4, 9] | AUC [4, 10] | Cmax [4, 11] | AUC ([4]; 40 mg/kg p.o.) | also measured |
| --- | --- | --- | --- | --- | --- | --- | --- | --- | --- | --- | --- | --- |
| Cc1ncc(C(=O)N[C@@H](COC(F)F)C(=O)N[C@@H](COC(F)F)C(=O)N[C@@H](Cc2ccccc2)C(=O)[C@@]2(C)CO2)s1 [FV-162] | Over 80% | 5 min | 20 L/kg | 68 min | 0.403 µg·h/mL | 0.392 µg/mL | 15 min | 14% | 0.451 µg·h/mL | 0.615 µg/mL | 27 073 min × ng/ml | potency in CT-L inhibition relative to ONX-0912 (CT-L proteasome subunit; in 6 of the 10 cell lines): over five times more potent than ONX-0912; IC50 (CT-L proteasome subunit; total cell lysates, all 10 human myeloma cell lines tested): < 0.06 µM; cell growth and viability (MTS) ([2]; all 10 human myeloma cell lines): decreased cell growth and viability; potency in MTS assay relative to ONX-0912 ([2]; in 5 of the 10 cell lines): over two times more potent than ONX-0912; primary myeloma cells killed ([3]; concentrations ⩽0.1 μM, 48 h, n=8 patients): At least 80%; toxicity, behavior and body weight on daily dosing (NOD/SCID mice): no evidence of toxicity, behavioral change, or loss of body weight; inhibition of C-L subunit activity in murine RBCs (C-L subunit activity): did not inhibit; inhibition of T-L subunit activity in murine RBCs (T-L subunit activity): did not inhibit |
| COC[C@H](NC(=O)c1cnc(C)s1)C(=O)N[C@@H](COC)C(=O)N[C@@H](Cc1ccccc1)C(=O)[C@@]1(C)CO1 [ONX-0912, reference compound] | 56% | 5 min | 4 L/kg | 10 min | 0.301 µg·h/mL | 1.09 µg/mL | 5 min | 16% | 0.377 µg·h/mL | 1.27 µg/mL | 22 627 min × ng/ml | induction of death in primary myeloma cells ([3]; similar concentrations as FV-162, 48 h): less effective at inducing death in primary myeloma cells; clearance [4, 5]: 16.4 L/h/kg; MTD (not reached at cumulative doses up to) (patients; administered twice daily): > 190 mg/day; MTD (patients; once-daily oral, patients with advanced refractory or recurrent solid tumors): 150 mg/day |
